Source: patent US20210122739A1, “NOVEL SULFONAMIDE CARBOXAMIDE COMPOUNDS” (Inflazome Limited, priority 2017, published 2021)

How the values were obtained:
[1] = target: T1, NLRP3 (Homo sapiens, UniProt Q96P20); test: THP-1 cells pyroptosis assay; type: cell-based; parameters: Seed THP-1 cells (25,000 cells/well) containing 1.0 μg/ml LPS; host or cells: THP-1 cells, LPS-primed, nigericin-stimulated; settings: 1.0 μg/ml LPS, nigericin 5 μM, resazurin readout
Excerpt: It is well established that the activation of NLRP3 leads to cell pyroptosis and this feature plays an important part in the manifestation of clinical disease (Yan-gang Liu et al., Cell Death & Disease, 2017, 8(2), e2579; Alexander Wree et al., Hepatology, 2014, 59(3), 898-910; Alex Baldwin et al., Journal of Medicinal Chemistry, 2016, 59(5), 1691-1710; Ema Ozaki et al., Journal of Inflammation Research, 2015, 8, 15-27; Zhen Xie & Gang Zhao, Neuroimmunology Neuroinflammation, 2014, 1(2), 60-65; Mattia Cocco et al., Journal of Medicinal Chemistry, 2014, 57(24), 10366-10382; T. Satoh et al., Cell Death & Disease, 2013, 4, e644). Therefore, it is anticipated that inhibitors of NLRP3 will block pyroptosis, as well as the release of pro-inflammatory cytokines (e.g. IL-1β) from the cell.
THP-1 cells (ATCC #TIB-202) were grown in RPMI containing L-glutamine (Gibco #11835) supplemented with 1 mM sodium pyruvate (Sigma #S8636) and penicillin (100 units/ml)/streptomycin (0.1 mg/ml) (Sigma #P4333) in 10% Fetal Bovine Serum (FBS) (Sigma #F0804). The cells were routinely passaged and grown to confluency (˜10^6 cells/ml). On the day of the experiment, THP-1 cells were harvested and resuspended into RPMI medium (without FBS). The cells were then counted and viability (>90%) checked by Trypan blue (Sigma #T8154). Appropriate dilutions were made to give a concentration of 625,000 cells/ml. To this diluted cell solution was added LPS (Sigma #L4524) to give a 1 μg/ml Final Assay Concentration (FAC). 40 μl of the final preparation was aliquoted into each well of a 96-well plate. The plate thus prepared was used for compound screening.
The following method step-by-step assay was followed for compound screening. • 1. Seed THP-1 cells (25,000 cells/well) containing 1.0 μg/ml LPS in 40 μl of RPMI medium (without FBS) in 96-well, black walled, clear bottom cell culture plates coated with poly-D-lysine (VWR #734-0317) • 2. Add […] compound (8 points half-log dilution, with 10 μM top dose) or vehicle (DMSO 0.1% FAC) to the appropriate wells • 3. Incubate for 3 hrs at 37° C. in 5% CO2 • 4. Add 5 μl nigericin (Sigma #N7143) (FAC 5 μM) to all wells • 5. Incubate for 1 hr at 37° C. and 5% CO2 • 6. At the end of the incubation period, spin plates at 300×g for 3 mins and remove supernatant • 7. Then add 50 μl of resazurin (Sigma #R7017) (FAC 100 μM resazurin in RPMI medium without FBS) and incubate plates for a further 1-2 hrs at 37° C. and 5% CO2 • 8. Plates were read in an Envision reader at Ex 560 nm and Em 590 nm • 9. IC50 data is fitted to a non-linear regression equation (log inhibitor vs response-variable slope 4-parameters)

[2] = target: T1, NLRP3; test: Human whole blood IL1β release assay; type: cell-based; parameters: Plate out 80 μl of whole blood containing 1 μg/ml of LPS; from tissue; host or cells: human whole blood from healthy donors, LPS-primed, nigericin-stimulated; settings: 1 μg/ml LPS, nigericin 10 μM, IL-1β by AlphaLisa, read-out: HWB IC50
Description: For systemic delivery, the ability to inhibit NLRP3 when the compounds are present within the bloodstream is of great importance. For this reason, the NLRP3 inhibitory activity of a number of compounds in human whole blood was investigated in accordance with the following protocol.
Human whole blood in Li-heparin tubes was obtained from healthy donors from a volunteer donor panel. • 1. Plate out 80 μl of whole blood containing 1 μg/ml of LPS in 96-well, clear bottom cell culture plate (Corning #3585) • 2. Add 10 μl compound (8 points half-log dilution with 10 μM top dose) or vehicle (DMSO 0.1% FAC) to the appropriate wells • 3. Incubate for 3 hrs at 37° C., 5% CO2 • 4. Add 10 μl Nigericin (Sigma #N7143) (10 μM FAC) to all wells • 5. Incubate for 1 hr at 37° C., 5% CO2 • 6. At the end of the incubation period, spin plates at 300×g for 5 mins to pellet cells and remove 20 μl of supernatant and add to 96-well v-bottom plates for IL-1β analysis (note: these plates containing the supernatants can be stored at −80° C. to be analysed at a later date) • 7. IL-1β was measured according to the manufacturer protocol (Perkin Elmer-AlphaLisa IL-1 Kit AL220F-5000) • 8. IC50 data is fitted to anon-linear regression equation (log inhibitor vs response-variable slope 4-parameters)

T1 sequence (Q96P20 whole entry): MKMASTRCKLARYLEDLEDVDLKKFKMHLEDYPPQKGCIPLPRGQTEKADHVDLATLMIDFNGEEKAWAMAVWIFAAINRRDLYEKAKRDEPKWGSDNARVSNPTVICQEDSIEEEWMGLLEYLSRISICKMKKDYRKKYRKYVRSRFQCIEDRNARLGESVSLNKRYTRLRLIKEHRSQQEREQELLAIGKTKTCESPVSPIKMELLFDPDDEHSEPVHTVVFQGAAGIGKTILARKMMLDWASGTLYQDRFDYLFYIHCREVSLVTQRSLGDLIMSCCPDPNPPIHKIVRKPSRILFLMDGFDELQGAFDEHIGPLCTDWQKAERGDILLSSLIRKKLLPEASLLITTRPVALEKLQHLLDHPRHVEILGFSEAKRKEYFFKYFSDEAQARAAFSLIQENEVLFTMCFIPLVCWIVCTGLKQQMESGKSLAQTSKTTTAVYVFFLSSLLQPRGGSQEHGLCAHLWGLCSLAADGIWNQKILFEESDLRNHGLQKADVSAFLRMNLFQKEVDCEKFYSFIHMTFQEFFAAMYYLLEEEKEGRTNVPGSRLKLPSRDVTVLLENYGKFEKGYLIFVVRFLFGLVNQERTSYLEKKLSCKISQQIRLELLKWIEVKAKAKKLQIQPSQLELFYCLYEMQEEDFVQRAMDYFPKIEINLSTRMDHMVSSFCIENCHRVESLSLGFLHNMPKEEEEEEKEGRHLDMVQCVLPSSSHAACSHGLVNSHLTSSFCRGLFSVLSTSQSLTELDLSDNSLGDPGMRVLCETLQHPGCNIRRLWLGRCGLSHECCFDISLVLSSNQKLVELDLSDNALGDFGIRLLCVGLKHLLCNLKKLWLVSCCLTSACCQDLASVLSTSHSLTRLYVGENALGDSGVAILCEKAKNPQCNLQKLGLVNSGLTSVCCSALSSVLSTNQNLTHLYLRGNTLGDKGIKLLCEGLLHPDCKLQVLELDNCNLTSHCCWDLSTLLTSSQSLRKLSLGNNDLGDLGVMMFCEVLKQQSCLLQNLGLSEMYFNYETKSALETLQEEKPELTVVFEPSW

| SMILES | IC50 [1] | IC50 [2] |
| --- | --- | --- |
| CCN(C)C(=O)c1cc(S(=O)(=O)NC(=O)Nc2c(C(C)C)cc(F)cc2C(C)C)nn1C [Example 49, N-Ethyl-3-(N-((4-fluoro-2,6-diisopropylphenyl)carbamoyl)sulfamoyl)-N,1-dimethyl-1H-pyrazole-5-carboxamide] | 160 to 640 nM | 400 to 800 nM |
| CC(C)c1cc(F)cc(-c2cnn(C)c2)c1NC(=O)NS(=O)(=O)c1cc(C(=O)N(C)C)n(C)n1 [Example 35, 3-(N-((4-Fluoro-2-isopropyl-6-(1-methyl-H-pyrazol-4-yl)phenyl)carbamoyl)sulfamoyl)-N,N,1-trimethyl-1H-pyrazole-5-carboxamide] | 640 to 2560 nM | < 400 nM |
| COCCN(CCOC)C(=O)c1cc(S(=O)(=O)NC(=O)Nc2c(-c3ccnc(OC(C)C)c3)cc(F)cc2C(C)C)nn1C [Example 79, 3-(N-((4-Fluoro-2-(2-isopropoxypyridin-4-yl)-6-isopropyl-phenyl)carbamoyl)sulfamoyl)-N,N-bis(2-methoxyethyl)-1-methyl-1H-pyrazole-5-carboxamide] | 2560 to 10000 nM | 3200 to 10000 nM |
| CNC(=O)c1cc(S(=O)(=O)NC(=O)Nc2c(C(C)C)cccc2C(C)C)nn1C [Example 55, 3-(N-((2,6-Diisopropylphenyl)carbamoyl)sulfamoyl)-N,1-dimethyl-1H-pyrazole-5-carboxamide] | 160 to 640 nM | 400 to 800 nM |
| CC(C)c1cc(F)cc(C2CCOCC2)c1NC(=O)NS(=O)(=O)c1cc(C(=O)N(C)C)n(C)n1 [Example 33, 3-(N-((4-Fluoro-2-isopropyl-6-(tetrahydro-2H-pyran-4-yl)phenyl)carbamoyl)sulfamoyl)-N,N,1-trimethyl-1H-pyrazole-5-carboxamide] |  | 400 to 800 nM |
| CC(C)NC(=O)c1cc(S(=O)(=O)NC(=O)Nc2c(C(C)C)cccc2C(C)C)nn1C [Example 38, 3-(N-((2,6-Diisopropylphenyl)carbamoyl)sulfamoyl)-N-isopropyl-1-methyl-1H-pyrazole-5-carboxamide] | 2560 to 10000 nM |  |
| COCCN(C)C(=O)c1cc(S(=O)(=O)NC(=O)Nc2c(C(C)C)cccc2C(C)C)nn1C [Example 22, 3-(N-((2,6-Diisopropylphenyl)carbamoyl)sulfamoyl)-N-(2-methoxyethyl)-N,1-dimethyl-1H-pyrazole-5-carboxamide] | 2560 to 10000 nM |  |
| CC(C)c1cccc(C(C)C)c1NC(=O)NS(=O)(=O)c1cc(C(=O)N2CCCC2)n(C)n1 [Example 63, N-((2,6-Diisopropylphenyl)carbamoyl)-1-methyl-5-(pyrrolidine-1-carbonyl)-1H-pyrazole-3-sulfonamide] | 640 to 2560 nM |  |
| CC(C)c1cc(F)cc(-c2cccnc2)c1NC(=O)NS(=O)(=O)c1cc(C(=O)N(C)C)n(C)n1 [Example 41, 3-(N-((4-Fluoro-2-isopropyl-6-(pyridin-3-yl)phenyl)carbamoyl)sulfamoyl)-N,N,1-trimethyl-1H-pyrazole-5-carboxamide] |  | < 400 nM |

Results, then the compound that gave them:

| IC50 [1] | IC50 [2] | SMILES |
| --- | --- | --- |
| 160 to 640 nM | < 400 nM | COCCN(CCOC)C(=O)c1cc(S(=O)(=O)NC(=O)Nc2c(-c3ccnc(OC)c3)ccc3c2CCC3)nn1C [Example 80, N,N-Bis(2-methoxyethyl)-3-(N-((5-(2-methoxypyridin-4-yl)-2,3-dihydro-1H-inden-4-yl)carbamoyl)sulfamoyl)-1-methyl-1H-pyrazole-5-carboxamide] |
| 40 to 160 nM | < 400 nM | CN(CCO)C(=O)c1cc(S(=O)(=O)NC(=O)Nc2c3c(cc4c2CCC4)CCC3)nn1C [Example 78, 3-(N-((1,2,3,5,6,7-Hexahydro-s-indacen-4-yl)carbamoyl)sulfamoyl)-N-(2-hydroxyethyl)-N,1-dimethyl-1H-pyrazole-5-carboxamide] |
| 40 to 160 nM | 400 to 800 nM | COCCN(CCOC)C(=O)c1cc(S(=O)(=O)NC(=O)Nc2c3c(cc4c2CCC4)CCC3)nn1C [Example 26, 3-(N-((1,2,3,5,6,7-Hexahydro-s-indacen-4-yl)carbamoyl)sulfamoyl)-N,N-bis(2-methoxyethyl)-1-methyl-1H-pyrazole-5-carboxamide] |
| 40 to 160 nM | 400 to 800 nM | CN(C(=O)c1cc(S(=O)(=O)NC(=O)Nc2c3c(cc4c2CCC4)CCC3)nn1C)C1CC1 [Example 52, N-Cyclopropyl-3-(N-((1,2,3,5,6,7-hexahydro-s-indacen-4-yl)carbamoyl)sulfamoyl)-N,1-dimethyl-1H-pyrazole-5-carboxamide] |
| 40 to 160 nM | 800 to 1600 nM | CCN(CC)C(=O)c1cc(S(=O)(=O)NC(=O)Nc2c3c(cc4c2CCC4)CCC3)nn1C [Example 65, N,N-Diethyl-3-(N-((1,2,3,5,6,7-hexahydro-s-indacen-4-yl)carbamoyl)sulfamoyl)-1-methyl-1H-pyrazole-5-carboxamide] |
| 160 to 640 nM |  | CN(CCC#N)C(=O)c1cc(S(=O)(=O)NC(=O)Nc2c3c(cc4c2CCC4)CCC3)nn1C [Example 9, N-(2-Cyanoethyl)-3-(N-((1,2,3,5,6,7-hexahydro-s-indacen-4-yl)carbamoyl)sulfamoyl)-N,1-dimethyl-1H-pyrazole-5-carboxamide] |
| 2560 to 10000 nM |  | COCCN(CCOC)C(=O)c1cc(S(=O)(=O)NC(=O)Nc2c(C(C)C)cccc2C(C)C)nn1C [Example 23, 3-(N-((2,6-Diisopropylphenyl)carbamoyl)sulfamoyl)-N,N-bis(2-methoxyethyl)-1-methyl-1H-pyrazole-5-carboxamide] |
| 2560 to 10000 nM |  | CC(=O)N(C)CCN(C)C(=O)c1cc(S(=O)(=O)NC(=O)Nc2c3c(cc4c2CCC4)CCC3)nn1C [Example 12, 3-(N-((1,2,3,5,6,7-Hexahydro-s-indacen-4-yl)carbamoyl)sulfamoyl)-N,1-dimethyl-N-(2-(N-methylacetamido)ethyl)-1H-pyrazole-5-carboxamide] |
| 2560 to 10000 nM |  | CC(=O)NCCN(C)C(=O)c1cc(S(=O)(=O)NC(=O)Nc2c3c(cc4c2CCC4)CCC3)nn1C [Example 13, N-(2-Acetamidoethyl)-3-(N-((1,2,3,5,6,7-hexahydro-s-indacen-4-yl)carbamoyl)sulfamoyl)-N,1-dimethyl-1H-pyrazole-5-carboxamide] |
| 2560 to 10000 nM |  | CN(C(=O)c1cc(S(=O)(=O)NC(=O)Nc2c3c(cc4c2CCC4)CCC3)nn1C)C1CCOCC1 [Example 14, 3-(N-((1,2,3,5,6,7-Hexahydro-s-indacen-4-yl)carbamoyl)sulfamoyl)-N,1-dimethyl-N-(tetrahydro-2H-pyran-4-yl)-1H-pyrazole-5-carboxamide] |
| 2560 to 10000 nM |  | COC1CCN(C(=O)c2cc(S(=O)(=O)NC(=O)Nc3c4c(cc5c3CCC5)CCC4)nn2C)C1 (centres unmarked) [Example 25, N-((1,2,3,5,6,7-Hexahydro-s-indacen-4-yl)carbamoyl)-5-(3-methoxypyrrolidine-1-carbonyl)-1-methyl-1H-pyrazole-3-sulfonamide] |
